Assay results from ChEMBL document CHEMBL1128289, “Reductive chemistry of the novel hypoxia-selective cytotoxin 5-[N,N-bis(2-chloroethyl)amino]-2,4-dinitrobenzamide” (J Med Chem, 1995).

Legend:
[1] = test system: CHO-AA8; assay: Cytotoxicity in a growth inhibition assay against aerobic cultures of AA8 cells was determined; format: functional, cell-based, Cricetulus griseus
[2] = test system: UV4; assay: Cytotoxicity in a growth inhibition assay against aerobic cultures of UV4 cells was determined; format: functional, cell-based; settings: Cricetulus griseus

NC(=O)c1cc2c(cc1[N+](=O)[O-])NCCN2CCCl
IC50 ([1]; Cricetulus griseus, CHO-AA8): 730 µM
IC50 [2]: 49 µM

NC(=O)c1cc2c(cc1N)NCCN2CCCl
IC50 ([1]; Cricetulus griseus, CHO-AA8): 6.9 µM
IC50 [2]: 0.87 µM

NC(=O)c1cc(N(CCCl)CCCl)c([N+](=O)[O-])cc1[N+](=O)[O-]
IC50 ([1]; cho-aa8): 1600 µM
IC50 [2]: 960 µM

NC(=O)c1cc(N(CCO)CCO)c(N)cc1N
IC50 ([1]; Cricetulus griseus, CHO-AA8): 2300 µM
IC50 [2]: 3000 µM
